Data taken from patent publication US20200352889A1, “CYSTATHIONINE COMPOSITIONS AND METHODS OF TREATMENT FOR HEALTH CONDITIONS” (THE REGENTS OF THE UNIVERSITY OF COLORADO, A BODY CORPORATE, priority 2011, published 2020).
Residues, ends and D or L forms follow the SMILES beside them. *: point of attachment. Cbz = O=C(OCc1ccccc1)*; CH2F = FC*

Experiments:
A293AD kidney cells = experiment: Thapsagargin-induced cell death, LDH release, A293AD kidney cells; type: cell-based, human
Method: It was previously shown that cystathionine can protect against ER stress induced cell death induced by the glycosylation inhibitor tunicamycin. In order to investigate if this protective effect was limited to tunicamycin, it was investigated whether cystathionine (1 mM) could protect A293AD kidney cells against ER stress induced cell death mediated by the calcium metabolism inhibitor compound thapsagargin (1 uM). Cell death was monitored by measuring LDH release into culture media. In order to investigate if cystathionine was simply blocking apoptosis, the effect of thapsagargin in the presence of the known apoptosis inhibitor Z-VAD-FMK was investigated. […] While it is not necessary to understand the mechanism of action, it is believed that 1.

HepG2 cells [1] = experiment: Tunicamycin or thapsagargin induced cell death in HepG2 cells, comparison with Z-VAD-FMK; type: cell-based, human; conditions: p>0.05 for Z-VAD-FMK
a23 cells = experiment: Tunicamycin-induced cell death, LDH release, transsulfuration negative a23 cells; type: cell-based, Chinese hamster; conditions: CBS and CGL negative, p<0.0001
Description: However, examination of a direct effect of exogenously added cystathionine is not currently possible in a whole animal model because of complications with the compounds solubility and rapid kinetics of its excretion. In order to investigate the direct effects of cystathionine against ER stress-induced cell death, the cytotoxicity of tunicamycin in the human embryonic kidney cell line 293AD and the human hepatoma cell line HepG2 in the presence and absence of both PPG and exogenously added cystathionine was examined. Preliminary experiments confirmed that both of these cell lines express both CBS and CGL (data not shown). In order to investigate the possible protective effects of cystathionine in the absence of transsulfuration, these experiments were repeated with the CBS and CGL negative Chinese hamster fibroblast line a23 (6).
Cells were seeded in triplicate at ˜75% confluence and pre-treated with either PPG) (5 mM), Cystathionine (1 mM) or with just complete media (DMEM, 10% FBS) as a control. […] To further evaluate a role for cystathionine in resisting the induction of cell death by tunicamycin, cell lysis was quantified by assaying lactate dehydrogenase (LDH) release. The enzyme activity was determined spectrophotometrically and the amount of enzyme leak was expressed as a percentage of the LDH activity observed in untreated control cells. […]

[2] = Solubility of cystathionine in water; type: physicochemical
Grp78, Grp94, GADD153 = experiment: Northern and Western blotting of UPR induction in 293AD cells; type: cell-based, human
Method: To further assess the effect of cystathionine upon induction of the UPR and GADD153 by ER stress Northern and Western blotting experiments were performed.
Immunoblot analysis of total cell lysates was performed as described previously (4,14). Briefly, following incubation with the appropriate primary and horseradish peroxidase-conjugated secondary antibodies (Affinity Biologicals, Ancaster, ON, Canada) membranes were developed using the Renaissance® Western Blot Chemiluminescence Reagent Kit, (Perkin Elmer, Woodbridge, ON, Canada). Proteins were transferred on a nitrocellulose membrane, and probed with anti-KDEL monoclonal antibody, which recognizes Hsp70, GRP78 and GRP94 that was purchased from Stressgen Biotechnologies (SPA-827) or anti GADD153 (Santa Cruz Biotech #SC-7351). Anti-β-Actin monoclonal antibody (Sigma) was used as a loading control.
Total RNA was isolated from 293AD cells using the RNeasy® total RNA kit (Qiagen, Santa Clarita, Calif.) and resuspended in diethylpyrocarbonate (DEPC)-treated water. Quantification and purity of the RNA was assessed by A260/A280 absorption, and RNA samples with ratios greater than 1.6 were stored at […] for further analysis. Total RNA (10 μg/lane) was fractionated on 2.2 mol/L formaldehyde/1.2% agarose gels and transferred overnight onto Zeta-Probe® GT nylon membranes (Bio-Rad, Toronto, Canada) in 10×SSC. The RNA was cross-linked to the membrane using a UV crosslinker (PDI Bioscience, Toronto, Canada) before hybridization. Specific probes were generated by labeling cDNA fragments with [−32P]dCTP (NEN) using a random primed DNA labeling kit (Boehringer Mannheim, Laval, Canada). The cDNA probe for GADD153 (no. AA627477) was obtained from Genome Systems (St Louis, Mo.). The cDNA probe used for GRP78 is a full length cDNA clone that has been described previously (4). After overnight hybridization at 43° C., the membranes were washed as described by the manufacturer, exposed to x-ray film, and subjected to autoradiography.

293AD cells = experiment: Tunicamycin-induced cell death, LDH release and phase-contrast, 293AD cells; type: cell-based, human
Method: (§1) Cells were seeded in triplicate at ˜75% confluence and pre-treated with either PPG) (5 mM), Cystathionine (1 mM) or with just complete media (DMEM, 10% FBS) as a control. After 24 hr pre-treatment, cells looked normal, with minimal floating cells. Fresh media with 1% FBS was then added to each well, the cells were further treated with Tm (either 5 or 10 ug)/ml. After 18 hr. treatment with Tunicamycin, cells were photographed under phase-contrast with a Zeiss Axiovert 25 microscope for evidence of dead floating cells. Cells from the group treated solely with tunicamycin became strikingly hyper-refringent, detached from the substratum and floated in the media. […] To further evaluate a role for cystathionine in resisting the induction of cell death by tunicamycin, cell lysis was quantified by assaying lactate dehydrogenase (LDH) release. The enzyme activity was determined spectrophotometrically and the amount of enzyme leak was expressed as a percentage of the LDH activity observed in untreated control cells.
HepG2, 293AD and a23 cells were seeded in triplicate at ˜75% confluence and were pre-treated with either propargylglycine (PPG) (5 mM) or cystathionine (5 mM) in complete media (DMEM, 10% FBS). After 24 hours, fresh media with 1% FBS was added to each well. Cells were then further treated with tunicamycin (either 5 or 10 ug/ml) for 18 hr treatment. Cells were subsequently photographed under phase-contrast with a Zeiss Axiovert 25 microscope for evidence of dead floating cells. To quantify cell death the media supernatant was collected for LDH release assay using a kit from Roche Applied Science (Cat.No.11 644 793 001) according to the manufacturer's standard protocol where cytotoxicity (%)=((experimental value-low control/(high control-low control))×100.
as §1, with “24 hr.” for “24 hr”

[3] = Urinary excretion of cystathionine in mice; type: in vivo, mouse
HepG2 cells [4] = experiment: Tunicamycin-induced cell death, LDH release, HepG2 cells; type: cell-based, human; conditions: data not shown
Method: as §1, with “control cells. […]” for “control cells.”
Cells were seeded in triplicate at ˜75% confluence and pre-treated with either PPG) (5 mM), Cystathionine (1 mM) or with just complete media (DMEM, 10% FBS) as a control. […] To further evaluate a role for cystathionine in resisting the induction of cell death by tunicamycin, cell lysis was quantified by assaying lactate dehydrogenase (LDH) release. […]

Compound: COC(=O)C[C@H](NC(=O)[C@H](C)NC(=O)[C@@H](NC(=O)OCc1ccccc1)C(C)C)C(=O)CF [Z-VAD-FMK] (Cbz-Val-Ala-Asp(OMe)-CH2F)
- reduction of total cell death (A293AD kidney cells; thapsagargin 1 uM): approximately 20%
- protection against cell death induced by thapsagargin (HepG2 cells [1]): only modest protection
- protection against cell death induced by tunicamycin (HepG2 cells [1]): only modest protection

Compound: NC(CSCC[C@@H](N)C(=O)O)C(=O)O (stereo partly drawn) [cystathionine, R—S-(2-Amino-2-carboxyethyl)-L-homocysteine]
- reduction in tunicamycin induced cell death (LDH release) (a23 cells): 16 fold
- solubility in water [2]: relatively low solubility in water
- expression of Grp78, Grp94 and GADD15 in control cells (Grp78, Grp94, GADD153; PPG 5 mM or cystathionine 5 mM, no tunicamycin): Neither PPG nor exogenously added cystathionine induced expression
- scale of induction of Grp78, Grp94 and GADD153 in the presence of tunicamycin (Grp78, Grp94, GADD153; tunicamycin 5 and 10 μg/ml): Nor did either of these treatments significantly alter the scale of induction
- cell death in cystathionine control (A293AD kidney cells; cystathionine 1 mM alone): No cell death was observed
- protection against thapsagargin induced cell death (LDH release) (A293AD kidney cells; cystathionine 1 mM, thapsagargin 1 uM): highly significant protective effects
- protection against cell death induced by thapsagargin (HepG2 cells [1]): much greater protective effects
- protection against cell death induced by tunicamycin (HepG2 cells [1]): much greater protective effects
- reduction in cell death (LDH release) (293AD cells; 293AD cells, tunicamycin 10 μg/ml 18 hr, 24 hr pre-treatment PPG 5 mM or cystathionine 1 mM, p<0.0001): 27 fold
- floating dead cells (phase-contrast) (293AD cells; tunicamycin 18 hr after PPG or cystathionine pre-treatment): No floating dead cells were observed
- excretion in urine [3]: rapidly excreted in the urine
- protection against tunicamycin-induced cell death compared with 293AD cells (HepG2 cells [4]): Essentially identical results
